# Literature values as cited in patent publication US7211274B2, “Hair growth formulation” (Hovis SDN BHD, priority 2002, dated 2007).
# Conditions: reported
substance,measurement,value
tocotrienols,Half life in humans,2 to 4 h
tocopherols,Half life in humans,about 20 hours
